Broadly, the EC50 is the midpoint of the concentration-response curve. A higher EC50 goes with weaker potency.

The target in assay [1] is T1, Pameα7 (Periplaneta americana, UniProt A0A5P8U3L1).
T1 construct: cDNA in pGEM-HEJUEL injected in Xenopus laevis oocytes; homomeric receptor (pentamer by known biology)
T1 sequence (A0A5P8U3L1 42-518): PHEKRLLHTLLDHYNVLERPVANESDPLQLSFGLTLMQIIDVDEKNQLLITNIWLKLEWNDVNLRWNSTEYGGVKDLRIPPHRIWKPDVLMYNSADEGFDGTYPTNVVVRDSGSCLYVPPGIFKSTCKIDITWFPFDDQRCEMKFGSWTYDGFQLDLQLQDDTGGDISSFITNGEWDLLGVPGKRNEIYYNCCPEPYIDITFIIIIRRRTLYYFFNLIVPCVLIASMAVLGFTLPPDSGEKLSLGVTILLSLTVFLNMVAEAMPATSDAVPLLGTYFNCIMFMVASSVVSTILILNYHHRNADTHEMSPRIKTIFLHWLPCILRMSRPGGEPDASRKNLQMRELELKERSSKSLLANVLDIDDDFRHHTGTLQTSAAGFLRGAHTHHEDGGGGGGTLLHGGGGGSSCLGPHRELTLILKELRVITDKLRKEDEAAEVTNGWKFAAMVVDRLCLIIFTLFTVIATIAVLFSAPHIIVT
Kind of assay: two-electrode voltage clamp, Xenopus oocytes, agonist currents. Type of assay: cell-based. Conditions: 10 mM, -80 mV, 0.5 μM atropine, EC50 could not be calculated, unreliable (low currents).

Assay [2] deals with T1, Pameα7. The description is as above. Type of assay: cell-based. Conditions: cDNA-injected oocytes without RIC-3, -80 mV, 0.5 μM atropine, 20-22 °C, normalized to 10 mM nicotine, unreliable (native currents at 5 and 10 mM nicotine).

For the compound `CC(=O)OCC[N+](C)(C)C` [acetylcholine], the “two-electrode voltage clamp, Xenopus oocytes, agonist currents” value at Pameα7 [1] was “ACh and nicotine induced inward currents”.
Turning to `CN1CCC[C@H]1c1cccnc1` [nicotine], the EC50 at Pameα7 [2] worked out at 790 µM.

Values taken from article PMC7221154, “Cloning and Expression of Cockroach α7 Nicotinic Acetylcholine Receptor Subunit” (Frontiers in Physiology, 2020).
